Data from patent publication US7485641B2, “Substituted 3-amino-pyrrolidino-4-lactams” (Pfizer, Inc., priority 2006, dated 2009).
pIC50: −log10 of the molar value. Counter-ions that a name gives are not always drawn.

What follows are compounds tested against T1, DPP-IV (Homo sapiens, UniProt P27487) (assay: In vitro assay for dipeptidyl peptidase inhibition). Details: Examples 156-162; n-value in brackets; IC50's or percent inhibition at 300 nM; read-out: DPP-IV inhibition.
T1 construct: purchased Enzyme Systems Products SPE-01
T1 sequence (P27487 whole entry, species assumed): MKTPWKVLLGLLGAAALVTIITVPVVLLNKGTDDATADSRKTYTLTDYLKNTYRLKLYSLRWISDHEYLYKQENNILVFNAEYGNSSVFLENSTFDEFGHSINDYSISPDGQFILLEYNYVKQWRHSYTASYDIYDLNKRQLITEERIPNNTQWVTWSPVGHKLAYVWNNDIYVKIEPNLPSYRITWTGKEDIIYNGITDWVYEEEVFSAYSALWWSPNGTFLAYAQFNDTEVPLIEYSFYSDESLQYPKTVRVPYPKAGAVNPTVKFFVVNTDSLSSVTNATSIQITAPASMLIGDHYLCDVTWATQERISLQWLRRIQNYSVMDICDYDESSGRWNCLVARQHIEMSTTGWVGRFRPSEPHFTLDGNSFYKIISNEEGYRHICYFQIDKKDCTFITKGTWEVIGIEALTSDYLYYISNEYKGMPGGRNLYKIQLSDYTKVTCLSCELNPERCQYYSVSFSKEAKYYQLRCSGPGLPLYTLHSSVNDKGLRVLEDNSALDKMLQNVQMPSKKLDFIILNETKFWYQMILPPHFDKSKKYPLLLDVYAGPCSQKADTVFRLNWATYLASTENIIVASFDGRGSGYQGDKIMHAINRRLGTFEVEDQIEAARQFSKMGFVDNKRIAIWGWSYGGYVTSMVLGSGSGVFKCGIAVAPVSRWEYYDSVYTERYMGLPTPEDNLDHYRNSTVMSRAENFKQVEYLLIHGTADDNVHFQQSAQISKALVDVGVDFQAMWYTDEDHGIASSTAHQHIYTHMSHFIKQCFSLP
Assay type: biochemical

Row | pIC50 | Compound
1 | 5.94 | N[C@H]1CN(C(=O)c2cc3cc(Cl)ccc3[nH]2)C[C@@H]1N1CCCCC1=O [Example 161, 1-[(3S,4S)-4-Amino-1-(5-chloro-1H-indole-2-carbonyl)-pyrrolidin-3-yl]-piperidin-2-onehydrochloride]

Same assay, conditions: at 300 nM; n-value given in brackets

Row | Compound | DPP-IV Percent Inhibition at 300 nM
2 | COc1cc2c(cc1OC)CN(c1ncnc(N3C[C@H](N)[C@@H](N4CCCCC4=O)C3)n1)CC2.O=C(O)C(F)(F)F [Example 59, 1-((3S,4S)-4-Amino-1-(4-(6,7-dimethoxy-3,4-dihydroisoquinolin-2(1H)-yl)-1,3,5-triazin-2-yl)pyrrolidin-3-yl)piperidin-2-onetrifluoroacetate] | 44.3%(4)

Same assay, conditions: at 300 nM; n-value given in brackets; read-out: DPP-IV Percent Inhibition at 300 nM

Row | inhibition at 0.3 µM | Compound
3 | 32.6% | N[C@H]1CN(c2cc(N3Cc4cc(Cl)c(Cl)cc4C3)ncn2)C[C@@H]1N1CCCCC1=O [Example 54, 1-((3S,4S)-4-amino-1-(6-(5,6-dichloroisoindolin-2-yl)pyrimidin-4-yl)pyrrolidin-3-yl)piperidin-2-one]
4 | 23.2% | N[C@H]1CN(c2cc(OCC(F)(F)C(F)F)ncn2)C[C@@H]1N1CCCCC1=O [Example 94, 1-((3S,4S)-4-Amino-1-(6-(2,2,3,3-tetrafluoropropoxy)pyrimidin-4-yl)pyrrolidin-3-yl)piperidin-2-one trifluoroacetate]

Same assay, conditions: n-value given in brackets; read-out: DPP-IV IC50

Row | Compound | pIC50
5 | CC(C)Sc1ccc2c(N3C[C@H](N)[C@@H](N4CCCCC4=O)C3)ncnc2c1 [Example 137, 1-((3S,4S)-4-amino-1-(7-(isopropylthio)quinazolin-4-yl)pyrrolidin-3-yl)piperidin-2-one] | 6.94
6 | COc1ccc(-c2cc(N3C[C@H](N)[C@@H](N4CC(F)(F)CCC4=O)C3)ncn2)cn1 [Example 9, 1-((3S,4S)-4-amino-1-(6-(6-methoxypyridin-3-yl)pyrimidin-4-yl)pyrrolidin-3-yl)-5,5-difluoropiperidin-2-one trifluoroacetate] | 7.56
7 | N[C@H]1CN(c2ncnc(N3C[C@H](F)[C@@H](F)C3)n2)C[C@@H]1N1CCCCC1=O [Example 30, 1-((3S,4S)-4-Amino-1-(4-((3S,4S)-3,4-difluoropyrrolidin-1-yl)-1,3,5-triazin-2-yl)pyrrolidin-3-yl)piperidin-2-onetrifluoroacetate] | 6.98
8 | COc1cc2ncnc(N3C[C@H](N)[C@@H](N4CCCCC4=O)C3)c2cc1Cl [Example 106, 1-((3S,4S)-4-Amino-1-(6-chloro-7-methoxyquinazolin-4-yl)pyrrolidin-3-yl)piperidin-2-one trifluoroacetate] | 7.00
9 | N[C@H]1CN(c2cc(Oc3cccc(F)c3)ncn2)C[C@@H]1N1CCCCC1=O [Example 88, 1-((3S,4S)-4-amino-1-(6-(3-fluorophenoxy)pyrimidin-4-yl)pyrrolidin-3-yl)piperidin-2-one] | 6.50
10 | N[C@H]1CN(c2ncnc(N3CCc4sccc4C3)n2)C[C@@H]1N1CCCCC1=O [Example 71, 1-{(3S,4S)-4-Amino-1-[4-(6,7-dihydro-4H-thieno[3,2-c]pyridine-5-yl)-[1,3,5]triazin-2-yl]-pyrrolidin-3-yl}-piperidin-2-onetrifluoroacetate] | 6.86
11 | N-((R)-1-{4-[(3S,4S)-3-Amino-4-(2-oxo-piperidin-1-yl)-pyrrolidin-1-yl]-[1,3,5]triazin-2-yl}-pyrrolidin-3-yl)-acetamidetrifluoracetate [Example 43] | 6.64
12 | CS(=O)(=O)c1ccccc1S(=O)(=O)Oc1ccc2c(N3C[C@H](N)[C@@H](N4CC(F)(F)CCC4=O)C3)ncnc2c1 [Example 97, 4-((3S,4S)-3-amino-4-(5,5-difluoro-2-oxopiperidin-1-yl)pyrrolidin-1-yl)quinazolin-7-yl 2-(methylsulfonyl)benzenesulfonate] | > 9.00
13 | N[C@H]1CN(c2cc(N3CCC(F)(F)C3)nc(C(F)(F)F)n2)C[C@@H]1N1CC(F)(F)CCC1=O [Example 13, 1-((3S,4S)-4-amino-1-(6-(3,3-difluoropyrrolidin-1-yl)-2-(trifluoromethyl)pyrimidin-4-yl)pyrrolidin-3-yl)-5,5-difluoropiperidin-2-one] | 7.25
14 | CS(=O)(=O)c1ccc(S(=O)(=O)Oc2ccc3c(N4C[C@H](N)[C@@H](N5CCCCC5=O)C4)ncnc3c2)cc1 [Example 141, 4-((3S,4S)-3-amino-4-(2-oxopiperidin-1-yl)pyrrolidin-1-yl)quinazolin-7-yl 4-(methylsulfonyl)benzenesulfonate] | 6.56
15 | CCS(=O)(=O)Oc1ccc2c(N3C[C@H](N)[C@@H](N4CCCCC4=O)C3)ncnc2c1 [Example 134, 4-((3S,4S)-3-amino-4-(2-oxopiperidin-1-yl)pyrrolidin-1-yl)quinazolin-7-yl ethanesulfonate] | 6.66
16 | CO[C@H]1CCN(c2ncnc(N3C[C@H](N)[C@@H](N4CCCCC4=O)C3)n2)C1 [Example 40, 1-((3S,4S)-4-Amino-1-(4-((S)-3-methoxypyrrolidin-1-yl)-1,3,5-triazin-2-yl)pyrrolidin-3-yl)piperidin-2-onetrifluoroacetate] | 6.25
17 | CCSc1ccc2c(N3C[C@H](N)[C@@H](N4CC(F)(F)CCC4=O)C3)ncnc2c1 [Example 99, 1-((3S,4S)-4-amino-1-(7-(ethylthio)quinazolin-4-yl)pyrrolidin-3-yl)-5,5-difluoropiperidin-2-one] | 7.42
18 | N[C@H]1CN(c2ncnc3cc(C(F)(F)F)ccc23)C[C@@H]1N1CCCCC1=O [Example 110, 1-((3S,4S)-4-amino-1-(7-(trifluoromethyl)quinazolin-4-yl)pyrrolidin-3-yl)piperidin-2-one] | 7.33
19 | N[C@H]1CN(c2cc(N3CCc4ncsc4C3)ncn2)C[C@@H]1N1CCCC1=O [Example 62, 1-((3S,4S)-4-Amino-1-(6-(6,7-dihydrothiazolo[5,4-c]pyridin-5(4H)-yl)pyrimidin-4-yl)pyrrolidin-3-yl)pyrrolidin-2-onedihydrochloride] | 6.19
20 | N[C@H]1CN(c2ncnc3cc(Oc4ccc(OC(F)(F)F)cc4)ccc23)C[C@@H]1N1CCCCC1=O [Example 131, 1-((3S,4S)-4-amino-1-(7-(4-(trifluoromethoxy)phenoxy)quinazolin-4-yl)pyrrolidin-3-yl)piperidin-2-oneformate] | 6.72

Further lines, results first:

Row | pIC50 | Compound
21 | 7.93 | N[C@H]1CN(c2cc(N3CCc4nocc4C3)ncn2)C[C@@H]1N1CCCCC1=O [Example 5, 1-((3S,4S)-4-Amino-1-(6-(6,7-dihydroisoxazolo[4,3-c]pyridin-5(4H)-yl)pyrimidin-4-yl)pyrrolidin-3-yl)piperidin-2-one dihydrochloride]
22 | 6.26 | N[C@H]1CN(c2cc(N3CCc4sccc4C3)ncn2)C[C@@H]1N1CCCC1=O [Example 65, 1-((3S,4S)-4-Amino-1-(6-(6,7-dihydrothieno[3,2-c]pyridin-5(4H)-yl)pyrimidin-4-yl)pyrrolidin-3-yl)pyrrolidin-2-onehydrochloride]
23 | 6.86 | N[C@H]1CN(c2ncnc3cc(Oc4ccc(C(F)(F)F)cn4)ccc23)C[C@@H]1N1CCCCC1=O [Example 127, 1-((3S,4S)-4-amino-1-(7-(5-(trifluoromethyl)pyridin-2-yloxy)quinazolin-4-yl)pyrrolidin-3-yl)piperidin-2-one]
24 | 7.07 | N#CCCc1ccc2c(N3C[C@H](N)[C@@H](N4CCCCC4=O)C3)ncnc2c1 [Example 118, 3-(4-((3S,4S)-3-amino-4-(2-oxopiperidin-1-yl)pyrrolidin-1-yl)quinazolin-7-yl)propanenitrile]
25 | 7.90 | Cc1nc(N2C[C@H](N)[C@@H](N3CC(F)(F)CCC3=O)C2)cc(N2CCC(F)(F)C2)n1 [Example 3, 1-((3S,4S)-4-amino-1-(6-(3,3-difluoropyrrolidin-1-yl)-2-methylpyrimidin-4-yl)pyrrolidin-3-yl)-5,5-difluoropiperidin-2-one]
26 | 7.26 | COc1ccc(-c2cc(N3C[C@H](N)[C@@H](N4CCCCC4=O)C3)ncn2)cc1 [Example 86, 1-{(3S,4S)-4-Amino-1-[6-(4-methoxy-phenyl)-pyrimidin-4-yl]-pyrrolidin-3-yl}-piperidin-2-one hydrochloride]
27 | 6.08 | CC(C)(C)c1nc(N2C[C@H](N)[C@@H](N3CCCCC3=O)C2)cc(N2CCC(F)(F)C2)n1 [Example 22, 1-((3S,4S)-4-amino-1-(2-tert-butyl-6-(3,3-difluoropyrrolidin-1-yl)pyrimidin-4-yl)pyrrolidin-3-yl)piperidin-2-one]
28 | 6.69 | N[C@H]1CN(c2ncnc(N3CC[C@@H](O)C3)n2)C[C@@H]1N1CCCCC1=O [Example 38, 1-((3S,4S)-4-Amino-1-(4-((R)-3-hydroxypyrrolidin-1-yl)-1,3,5-triazin-2-yl)pyrrolidin-3-yl)piperidin-2-onetrifluoroacetate]
29 | 7.36 | CCCc1nc(N2C[C@H](N)[C@@H](N3CCCCC3=O)C2)cc(N2CCC(F)(F)C2)n1 [Example 18, 1-((3S,4S)-4-amino-1-(6-(3,3-difluoropyrrolidin-1-yl)-2-propylpyrimidin-4-yl)pyrrolidin-3-yl)piperidin-2-oneformate]
30 | 6.87 | CC(C)S(=O)(=O)Oc1ccc2c(N3C[C@H](N)[C@@H](N4CCCCC4=O)C3)ncnc2c1 [Example 136, 4-((3S,4S)-3-amino-4-(2-oxopiperidin-1-yl)pyrrolidin-1-yl)quinazolin-7-yl propane-2-sulfonate]
31 | 6.65 | N[C@H]1CN(c2nncc3ccccc23)C[C@@H]1N1CCCCC1=O [Example 145, 1-((3S,4S)-4-amino-1-(phthalazin-1-yl)pyrrolidin-3-yl)piperidin-2-one trifluoroacetate]
32 | < 5.52 | N[C@H]1CN(c2ncnc3c2ncn3C2CC2)C[C@@H]1N1CCCC1=O [Example 151, 1-((3S,4S)-4-Amino-1-(9-cyclopropyl-9H-purin-6-yl)pyrrolidin-3-yl)pyrrolidin-2-one hydrochloride]
33 | 6.96 | N[C@H]1CN(c2ncnc3cc(OCc4ccccc4)ccc23)C[C@@H]1N1CCCCC1=O [Example 114, 1-((3S,4S)-4-amino-1-(7-(benzyloxy)quinazolin-4-yl)pyrrolidin-3-yl)piperidin-2-one]
